Numbers after ± are expanded uncertainties.

The conditions of this data set: 101 kPa, Liquid mixture 1, Drop volume.

Take `Cc1ccccc1` [toluene] + O: the interfacial tension was 37.2 ± 0.3 mN/m (293.2 K); 36.3 ± 0.3 mN/m (298.2 K); 35.7 ± 0.3 mN/m (303.2 K); 35.2 ± 0.3 mN/m (308.2 K); 34.7 ± 0.3 mN/m (313.2 K).
